From patent US20240241113A1, “Method for detecting binding to an ADP-ribosyl group or a polymer thereof and a kit for performing said method” (priority 2021, published 2024)

What was measured:
[1] = biological target: T1, SARS-CoV-2 nsp3 macrodomain (Severe acute respiratory syndrome coronavirus 2, UniProt P0DTD1); test: FRET-based binding assay, CFP-SARS-CoV-2 nsp3 macrodomain with MARylated YFP-Gαi
Procedure: (§1) The experiments were carried out in assay buffer (10 mM Bis-Tris-Propane pH 7.0, 3% (w/v) PEG20,000, 0.01% (v/v) Triton X-100 and 0.5 mM TCEP) in 10 μl volume per well unless stated otherwise.
For the screening, 40 nl of 10 mM compound stocks dissolved in DMSO from the FDA-approved drug library (Enzo Life Sciences) were transferred to 384-well black low-volume polypropylene plates (Fisherbrand). The sample mixture containing 1 μM CFP-SARS-CoV-2 nsp3 macrodomain and 5 μM MARylated YFP-Gαi was prepared in assay buffer (10 mM Bis-Tris-Propane pH 7.0, 3% (w/v) PEG20,000, 0.01% (v/v) Triton X-100 and 0.5 mM TCEP) and 20 μl per well were dispensed using Mantis (Formulatrix). The rFRET signal was determined after 5 minute incubation time.

[2] = biological target: T1, SARS-CoV-2 nsp3 macrodomain; test: Validation of suramin binding by DSF; conditions: 5 μM macrodomain without tags, suramin 10 μM, 50 μM, 100 μM or 1 mM
Procedure: The SARS-CoV-2 nsp3 macrodomain without tags was diluted to 5 μM in 10 mM HEPES pH 7.5, 25 mM NaCl, 0.5 mM TCEP buffer and mixed with 5×SYPRO Orange. Samples were prepared with 10 μM, 50 μM, 100 μM or 1 mM of suramin. […] Samples were transferred to 96-well qPCR plates. Measurement was performed in a BioRad C1000 CFX96 thermal cycler. Data points for melting curves were recorded in 1 min intervals from 20-95° C., with the temperature increasing by 1° C./min. The analysis of the data was done in GraphPad Prism 7 using a nonlinear regression analysis (Boltzmann sigmoid equation) of normalized data.

[3] = system: viral and human ADP-ribose readers and erasers; test: FRET inhibition profile against ADP-ribosyl binders with YFP-GAP(MAR) or YFP-GAP(PAR); assay type: binding; conditions: 10 μM suramin; many of the proteins tested; ratiometric FRET
Procedure: as §1

[4] = system: SARS-CoV2; conditions: cell-culture based models; reported; cited from earlier work
[5] = biological target: CFP-ALC1 (human) (UniProt Q86WJ1); test: FRET competition: 250 nM CFP-ALC1 + 500 nM YFP-GAP(PAR), PARylated PARP2 varied; displaced ligand YFP-GAP(PAR) [e]
Sequence of CFP-ALC1 (human) (Q86WJ1 616-878 limits assumed): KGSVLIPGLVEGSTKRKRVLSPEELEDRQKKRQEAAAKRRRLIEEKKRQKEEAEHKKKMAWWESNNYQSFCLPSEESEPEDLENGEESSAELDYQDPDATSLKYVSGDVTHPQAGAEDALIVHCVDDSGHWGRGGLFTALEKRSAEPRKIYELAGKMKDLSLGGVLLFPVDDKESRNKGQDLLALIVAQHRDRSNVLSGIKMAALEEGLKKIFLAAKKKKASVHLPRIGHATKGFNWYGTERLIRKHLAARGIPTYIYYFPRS

Compound | inhibition at 20 µM ([1]; 20 μM compound, 1 μM CFP-SARS-CoV-2 nsp3 macrodomain, 5 μM MARylated YFP-Gαi, rFRET, read-out: inhibition in screen of ENZO FDA-approved drug library) [%] | IC50 ([1]; FRET-based assay, dose-response curve, read-out: IC50 against the SARS-CoV-2 nsp3 macrodomain) [µM] | stabilization of the protein by DSF [2] | stabilization of the protein by DSF ([2]; listed as Suramin) | inhibition of viral and human ADP-ribose readers and erasers [3] | inhibition of SARS-CoV2 infection [4] | IC50 (read off the curve) [5] [µM]
Cc1ccc(C(=O)Nc2ccc(S(=O)(=O)O)c3cc(S(=O)(=O)O)cc(S(=O)(=O)O)c23)cc1NC(=O)c1cccc(NC(=O)Nc2cccc(C(=O)Nc3cc(C(=O)Nc4ccc(S(=O)(=O)O)c5cc(S(=O)(=O)O)cc(S(=O)(=O)O)c45)ccc3C)c2)c1 [suramin] | 82 | 8.7 | stabilization of the protein in a concentration dependent manner | stabilization | strong inhibition | inhibit | –
PARylated PARP2 (from UniProt Q9UGN5 90-583) (enzyme) | – | – | – | – | – | – | 0.03
